According to PMC4226674, “A phase I trial of the HIV protease inhibitor nelfinavir in adults with solid tumors” (Oncotarget, 2014):
Where two headings read alike, the source gives them in different places.

How the values were obtained:
[1] = test system: ATF3 and/or CHOP; experiment: ER stress markers ATF3/CHOP in PBMCs by immunoblotting; type: in vivo, human; conditions: DL4 (3125 mg bid)
Protocol: Peripheral blood mononuclear cells (PBMCs) were collected at baseline, and then twice after starting nelfinavir: cycle 1 day 7 and cycle 1 day 42. Levels of P-AKT S473, P-EIF2 alpha S51, ATF3 and CHOP in PBMCs before and after nelfinavir were analyzed by immunoblotting. Blood was collected in Vacutainer CPT collection tubes with sodium heparin (BD Biosciences cat# 362753) and mononuclear cells were isolated as per the manufacturer's instructions. PBMCs were washed with PBS and lysed in 2X LSB buffer [33], aliquotted and stored at -80°C. For analysis, equal amounts of protein per sample were run on 10-12% SDS-PAGE gels, then transferred onto nitrocellulose membranes. Membranes were blocked in 5% milk in TBS + 0.1% tween (TBST) and incubated with primary antibody diluted in 5% BSA in TBST at 4 degrees overnight. The next day membranes were washed, incubated with HRP-linked secondary antibody and developed using ECL chemiluminescent reagent (GE Healthcare) and X-ray film as per the manufacturers instructions. The amount of P-AKT S473, P-EIF2 alpha S51, ATF3 or CHOP in the PBMCs at C1D7 and C1D42 were compared against a baseline sample for each patient, (prior to receiving nelfinavir). Antibodies against P-AKT S473 #4060, P-EIF2 alpha S51 #3398 and β-Actin #4970 were from Cell Signaling Technology (Danvers, MA). […]

[2] = target: T1, CYP3A4 (Homo sapiens, UniProt P08684); experiment: CYP3A4 phenotyping with oral midazolam before and at nelfinavir steady state; type: in vivo
T1 construct: To determine CYP3A4 phenotype, a single 3 mg oral dose of midazolam hydrochloride, a CYP3A4 substrate, was administered; from tissue; host or cells: in vivo, the patients' own (hepatic/intestinal) enzyme
T1 sequence (P08684 whole entry): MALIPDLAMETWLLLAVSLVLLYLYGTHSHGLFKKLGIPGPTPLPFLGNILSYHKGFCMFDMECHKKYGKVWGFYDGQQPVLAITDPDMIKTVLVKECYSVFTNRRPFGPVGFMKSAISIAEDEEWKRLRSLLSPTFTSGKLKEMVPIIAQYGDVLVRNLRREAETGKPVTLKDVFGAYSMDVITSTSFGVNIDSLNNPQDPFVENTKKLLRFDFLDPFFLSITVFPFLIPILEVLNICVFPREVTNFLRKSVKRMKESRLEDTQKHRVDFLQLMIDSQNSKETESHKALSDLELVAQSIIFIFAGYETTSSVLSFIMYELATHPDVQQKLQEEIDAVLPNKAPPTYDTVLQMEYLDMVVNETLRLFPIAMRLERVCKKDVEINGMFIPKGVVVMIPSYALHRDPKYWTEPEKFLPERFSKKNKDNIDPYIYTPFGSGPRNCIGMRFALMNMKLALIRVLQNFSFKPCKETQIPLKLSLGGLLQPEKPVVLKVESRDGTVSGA
Protocol: To determine CYP3A4 phenotype, a single 3 mg oral dose of midazolam hydrochloride, a CYP3A4 substrate, was administered at day -2 (2 days prior to commencing nelfinavir) and again at steady state (cycle 1 day 20). Serial venous blood samples were collected at 15, 30, 60, 120, 180, 240, and 300 minutes following administration of midazolam. […] Plasma concentrations of midazolam and nelfinavir were determined with a validated assay employing high performance liquid chromatography (HPLC) with mass spectrometric detection. Noncompartmental pharmacokinetic analyses were performed with WinNonlin 5.2 (Pharsight). Individual concentration-time profiles were constructed for each patient, course and drug resulting in four profiles per patient (two each for midazolam and nelfinavir). The maximum plasma concentration (Cmax) and the time of maximum plasma concentration (Tmax) were the observed values. Drug exposure was estimated using the area under the concentration-time curve (AUC). The area under the concentration-time curve (AUC) from time zero to the time of the final quantifiable sample (AUClast) was calculated using the linear trapezoidal method. The area under the concentration-time curve from time zero to infinity (AUCinf) was calculated by extrapolation, using the terminal rate constant from the last measurable concentration.

[3] = test system: P-AKT S473, P-EIF2 alpha S51, ATF3, CHOP in PBMCs; experiment: Surrogate biomarkers in PBMCs by immunoblotting; type: in vivo, human
Protocol: Blood was collected in Vacutainer CPT collection tubes with sodium heparin (BD Biosciences cat# 362753) and mononuclear cells were isolated as per the manufacturer's instructions. PBMCs were washed with PBS and lysed in 2X LSB buffer, aliquotted and stored at -80°C. For analysis, equal amounts of protein per sample were run on 10-12% SDS-PAGE gels, then transferred onto nitrocellulose membranes. Membranes were blocked in 5% milk in TBS + 0.1% tween (TBST) and incubated with primary antibody diluted in 5% BSA in TBST at 4 degrees overnight. The next day membranes were washed, incubated with HRP-linked secondary antibody and developed using ECL chemiluminescent reagent (GE Healthcare) and X-ray film as per the manufacturers instructions. […] Antibodies to CHOP sc-7351 and ATF3 sc-188 were from Santa Cruz Biotechnology (Santa Cruz, CA).

[4] = Nelfinavir plasma pharmacokinetics (HPLC-MS, noncompartmental); type: in vivo, human
Protocol: To determine CYP3A4 phenotype, a single 3 mg oral dose of midazolam hydrochloride, a CYP3A4 substrate, was administered at day -2 (2 days prior to commencing nelfinavir) and again at steady state (cycle 1 day 20). Serial venous blood samples were collected at 15, 30, 60, 120, 180, 240, and 300 minutes following administration of midazolam. Nelfinavir pharmacokinetics (PK) were obtained after single dose administration, cycle 1 day 1, and again at steady state, cycle 2 day 1. Serial venous blood samples were collected pre-dose and at 1, 2, 3, 4, 5, 6 and 12 hours after administration. Plasma concentrations of midazolam and nelfinavir were determined with a validated assay employing high performance liquid chromatography (HPLC) with mass spectrometric detection. Noncompartmental pharmacokinetic analyses were performed with WinNonlin 5.2 (Pharsight). Individual concentration-time profiles were constructed for each patient, course and drug resulting in four profiles per patient (two each for midazolam and nelfinavir). The maximum plasma concentration (Cmax) and the time of maximum plasma concentration (Tmax) were the observed values. Drug exposure was estimated using the area under the concentration-time curve (AUC). The area under the concentration-time curve (AUC) from time zero to the time of the final quantifiable sample (AUClast) was calculated using the linear trapezoidal method. The area under the concentration-time curve from time zero to infinity (AUCinf) was calculated by extrapolation, using the terminal rate constant from the last measurable concentration.

[5] = Cycle 2 Day 1 steady state, 3125 mg bid, mean, n=6

Cc1c(O)cccc1C(=O)N[C@@H](CSc1ccccc1)[C@H](O)CN1C[C@H]2CCCC[C@H]2C[C@H]1C(=O)NC(C)(C)C [nelfinavir, Nelfinavir]
samples showing an increase in ATF3 and/or CHOP [1]: 27% | change in midazolam clearance ([2]; day 20 (nelfinavir steady state) vs pre-nelfinavir (D-2), 3 mg oral midazolam, 19 subjects, p<0.001): significant decrease | change in midazolam exposure and half-life ([2]; day 20 vs pre-nelfinavir, p<0.05 for each, data not shown): significant increase | biomarker changes in PBMCs from baseline ([3]; DL1 or DL2 (1250, 1875 mg bid)): no biomarker changes | subjects with decrease in P-AKT S473 or increase in EIF2 alpha S51 phosphorylation ([3]; DL3 (2500 mg bid)): 1 out of 3 | subjects showing changes in 3 of 4 biomarkers evaluated ([3]; DL4 (3125 mg bid)): 3 | effect on markers of ER stress in peripheral blood mononuclear cells ([3]; in vivo): induced markers of ER stress | CL_F ([4]; Cycle 1 Day 1, first oral dose 3125 mg, mean, n=10): 49,020 mL/h | CL_F [4, 5]: 59,826 mL/h | Evening Trough [4, 5]: 2883 ng/mL | Morning Trough [4, 5]: 4597 ng/mL | doses above which PK showed potential non-linearity ([4]; human, in vivo): 1875 to 2500 mg | AUC(0-inf) ([4]; human, in vivo, po, 1250 mg): 24500 ng·h/mL | AUC(0-t) ([4]; human, in vivo, po, 1250 mg): 16600 ng·h/mL | CL_F ([4]; human, in vivo, po, 1250 mg): 52,714 mL/h | Cmax ([4]; human, in vivo, po, 1250 mg): 2390 ng/mL | Tmax ([4]; human, in vivo, po, 1250 mg): 3.7 h | half-life ([4]; human, in vivo, po, 1250 mg): 6.6 h | AUC(0-inf) ([4]; human, in vivo, po, 1875 mg): 189000 ng·h/mL | AUC(0-t) ([4]; human, in vivo, po, 1875 mg): 73900 ng·h/mL | CL_F ([4]; human, in vivo, po, 1875 mg): 21,034 mL/h | Cmax ([4]; human, in vivo, po, 1875 mg): 10400 ng/mL | Tmax ([4]; human, in vivo, po, 1875 mg): 3.8 h | half-life ([4]; human, in vivo, po, 1875 mg): 11.9 h | AUC(0-inf) ([4]; human, in vivo, po, 2500 mg): 79400 ng·h/mL | AUC(0-t) ([4]; human, in vivo, po, 2500 mg): 61000 ng·h/mL | CL_F ([4]; human, in vivo, po, 2500 mg): 55,342 mL/h | Tmax ([4]; human, in vivo, po, 2500 mg): 6 h | half-life ([4]; human, in vivo, po, 2500 mg): 4.5 h | AUC(0-inf) ([4]; human, in vivo, po, 3750 mg): 131000 ng·h/mL | AUC(0-t) ([4]; human, in vivo, po, 3750 mg): 61500 ng·h/mL | CL_F ([4]; human, in vivo, po, 3750 mg): 52,114 mL/h | Cmax ([4]; human, in vivo, po, 3750 mg): 7920 ng/mL | Tmax ([4]; human, in vivo, po, 3750 mg): 2.7 h | half-life ([4]; human, in vivo, po, 3750 mg): 9.2 h | Cmax ([4]; human, in vivo, Cycle 1 Day 1, first oral dose 2500 mg, mean, n=3, read-out: Cmax): 9740 ng/mL | AUC(0-inf) ([4]; human, in vivo, Cycle 1 Day 1, first oral dose 3125 mg, mean, n=10, read-out: AUCinf): 140000 ng·h/mL | half-life ([4]; human, in vivo, Cycle 1 Day 1, first oral dose 3125 mg, mean, n=10, read-out: T1/2 (converted)): 9.2 h | AUC(0-t) ([4]; human, in vivo, Cycle 1 Day 1, first oral dose 3125 mg, mean, n=13, read-out: AUClast): 56900 ng·h/mL | Cmax ([4]; human, in vivo, Cycle 1 Day 1, first oral dose 3125 mg, mean, n=13, read-out: Cmax): 7640 ng/mL | Tmax ([4]; human, in vivo, Cycle 1 Day 1, first oral dose 3125 mg, mean, n=13, read-out: Tmax): 4.8 h | Cmax ([4]; human, in vivo, Cycle 2 Day 1 steady state, 3125 mg bid, mean, n=7, read-out: Cmax): 9550 ng/mL | Tmax ([4]; human, in vivo, Cycle 2 Day 1 steady state, 3125 mg bid, mean, n=7, read-out: Tmax): 3.3 h | AUC(0-t) ([4]; human, in vivo, Cycle 2 Day 1 steady state, 3125 mg bid, mean, read-out: AUClast): 60000 ng·h/mL | change of overall exposure or maximal plasma concentration with dose ([4]; in vivo): No increase | dose linearity of first dose pharmacokinetics ([4]; in vivo, po): Non-linear pharmacokinetics
